The target of the test is AMPK. Description: AMPK activation, enzyme-linked immunosorbent assay. Conditions: Table 9, compounds of Table 2. The format is biochemical. An outline of the steps:
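AMPK activation by test compounds was measured by enzyme-linked immunosorbent assay.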
For the molecule `Cn1c2c(c3cc(C(=O)NC4CCN(Cc5ccc(C#N)cc5)CC4)ccc31)CN(Cc1ccc(C(F)(F)F)cc1)CC2` [Compound 2-16, N-(1-(4-cyanobenzyl)piperidin-4-yl)-5-methyl-2-(4-(trifluoromethyl)benzyl)-2,3,4,5-tetrahydro-1H-pyrido[4,3-b]indole-8-carboxamide], the EC50 (as a rule, the concentration that produces a half-maximal response) is < 0.5 µM.

On to `Cn1c2c(c3cc(C(=O)NC4CCN(Cc5ccc(C(F)(F)F)cc5)CC4)ccc31)CN(Cc1ccc(C(F)(F)F)cc1)CC2` [Compound 2-17, N-(1-(4-trifluoromethylbenzyl)piperidin-4-yl)-5-methyl-2-(4-(trifluoromethyl)benzyl)-2,3,4,5-tetrahydro-1H-pyrido[4,3-b]indole-8-carboxamide], for which the EC50 lay in the range of 0.5 to 1 µM.

`Cn1c2c(c3cc(C(=O)NC4CCN(Cc5cccnc5)CC4)ccc31)CN(Cc1ccc(C(F)(F)F)cc1)CC2` [Compound 2-18, 5-methyl-N-(1-(pyridin-3-ylmethyl)piperidin-4-yl)-2-(4-(trifluoromethyl)benzyl)-2,3,4,5-tetrahydro-1H-pyrido[4,3-b]indole-8-carboxamide]: the EC50 is 1 to 5 µM.

`O=C(NC1CCN(Cc2ccccc2)CC1)c1ccc2[nH]c3c(c2c1)CN(S(=O)(=O)c1ccc(C(F)(F)F)cc1)CC3` [Compound 2-19, N-(1-benzylpiperidin-4-yl)-2-(4-(trifluoromethyl)phenylsulfonyl)-2,3,4,5-tetrahydro-1H-pyrido[4,3-b]indole-8-carboxamide]: the EC50 is > 100 µM.

Molecule `CC(=O)n1c2c(c3cc(C(=O)NC4CCN(Cc5cccnc5)CC4)ccc31)CN(Cc1ccc(C(F)(F)F)cc1)CC2` [Compound 2-20, 5-acetyl-N-(1-(pyridin-3-ylmethyl)piperidin-4-yl)-2-(4-(trifluoromethyl)benzyl)-2,3,4,5-tetrahydro-1H-pyrido[4,3-b]indole-8-carboxamide] had an EC50 of 1 to 5 µM.

In turn, `N#Cc1ccc(S(=O)(=O)N2CCC(NC(=O)c3ccc4[nH]c5c(c4c3)CN(Cc3ccc(C(F)(F)F)cc3)CC5)CC2)cc1` [Compound 2-21, N-(1-(4-cyanophenylsulfonyl)piperidin-4-yl)-2-(4-(trifluoromethyl)benzyl)-2,3,4,5-tetrahydro-1H-pyrido[4,3-b]indole-8-carboxamide] gave an EC50 of 0.5 to 1 µM.

Take `O=C(NC1CCN(S(=O)(=O)c2cccnc2)CC1)c1ccc2[nH]c3c(c2c1)CN(Cc1ccc(C(F)(F)F)cc1)CC3` [Compound 2-22, N-(1-(pyridin-3-ylsulfonyl)piperidin-4-yl)-2-(4-(trifluoromethyl)benzyl)-2,3,4,5-tetrahydro-1H-pyrido[4,3-b]indole-8-carboxamide]: the EC50 was 0.5 to 1 µM.

In turn, `O=C(NC1CCN(S(=O)(=O)c2ccc(C(F)(F)F)cc2)CC1)c1ccc2[nH]c3c(c2c1)CN(Cc1ccc(C(F)(F)F)cc1)CC3` [Compound 2-23, 2-(4-(trifluoromethyl)benzyl)-N-(1-(4-(trifluoromethyl)phenylsulfonyl)piperidin-4-yl)-2,3,4,5-tetrahydro-1H-pyrido[4,3-b]indole-8-carboxamide] displayed an EC50 of 1 to 5 µM.

The molecule `N#Cc1ccc(CN2CCC(NC(=O)c3ccc4[nH]c5c(c4c3)CN(S(=O)(=O)c3ccc(C(F)(F)F)cc3)CC5)CC2)cc1` [Compound 2-24, N-(1-(4-cyanobenzyl)piperidin-4-yl)-2-(4-(trifluoromethyl)phenylsulfonyl)-2,3,4,5-tetrahydro-1H-pyrido[4,3-b]indole-8-carboxamide] came in with an EC50 of 1 to 5 µM.

Regarding `N#Cc1ccc(CN2CCC(NC(=O)c3ccc4[nH]c5c(c4c3)CN(S(=O)(=O)c3ccc(C#N)cc3)CC5)CC2)cc1` [Compound 2-25, N-(1-(4-cyanobenzyl)piperidin-4-yl)-2-(4-cyanophenylsulfonyl)-2,3,4,5-tetrahydro-1H-pyrido[4,3-b]indole-8-carboxamide], the EC50 is 10 to 50 µM.

Regarding `N#Cc1ccc(CN2CCC(NC(=O)c3ccc4[nH]c5c(c4c3)CN(S(=O)(=O)c3cccnc3)CC5)CC2)cc1` [Compound 2-26, N-(1-(4-cyanobenzyl)piperidin-4-yl)-2-(pyridin-3-ylsulfonyl)-2,3,4,5-tetrahydro-1H-pyrido[4,3-b]indole-8-carboxamide], the EC50 is 10 to 50 µM.

Molecule `N#Cc1ccc(NC(=O)N2CCC(NC(=O)c3ccc4[nH]c5c(c4c3)CN(Cc3ccc(C(F)(F)F)cc3)CC5)CC2)cc1` [Compound 2-27, N-(1-(4-cyanophenylcarbamoyl)piperidin-4-yl)-2-(4-(trifluoromethyl)benzyl)-2,3,4,5-tetrahydro-1H-pyrido[4,3-b]indole-8-carboxamide] had an EC50 of 1 to 5 µM.

Regarding `O=C(NC1CCN(S(=O)(=O)c2ccc(F)cc2)CC1)c1ccc2[nH]c3c(c2c1)CN(Cc1ccc(C(F)(F)F)cc1)CC3` [Compound 2-28, N-(1-(4-fluorophenylsulfonyl)piperidin-4-yl)-2-(4-(trifluoromethyl)benzyl)-2,3,4,5-tetrahydro-1H-pyrido[4,3-b]indole-8-carboxamide], the EC50 was in the range of 1 to 5 µM.

`N#Cc1cccc(S(=O)(=O)N2CCC(NC(=O)c3ccc4[nH]c5c(c4c3)CN(Cc3ccc(C(F)(F)F)cc3)CC5)CC2)c1` [Compound 2-29, N-(1-(3-cyanophenylsulfonyl)piperidin-4-yl)-2-(4-(trifluoromethyl)benzyl)-2,3,4,5-tetrahydro-1H-pyrido[4,3-b]indole-8-carboxamide] had an EC50 of 1 to 5 µM.

Regarding `O=C(NC1CCN(S(=O)(=O)c2cccc(C(F)(F)F)c2)CC1)c1ccc2[nH]c3c(c2c1)CN(Cc1ccc(C(F)(F)F)cc1)CC3` [Compound 2-30, 2-(4-(trifluoromethyl)benzyl)-N-(1-(3-(trifluoromethyl)phenylsulfonyl)piperidin-4-yl)-2,3,4,5-tetrahydro-1H-pyrido[4,3-b]indole-8-carboxamide], the EC50 was in the range of 1 to 5 µM.

`O=C(NC1CCN(S(=O)(=O)c2ccc(Cl)cc2)CC1)c1ccc2[nH]c3c(c2c1)CN(Cc1ccc(C(F)(F)F)cc1)CC3` [Compound 2-32, N-(1-(4-chlorophenylsulfonyl)piperidin-4-yl)-2-(4-(trifluoromethyl)benzyl)-2,3,4,5-tetrahydro-1H-pyrido[4,3-b]indole-8-carboxamide]: the EC50 fell in the range of 1 to 5 µM.

Regarding `O=C(NC1CCN(C(=O)Nc2ccc(C(F)(F)F)cc2)CC1)c1ccc2[nH]c3c(c2c1)CN(Cc1ccc(C(F)(F)F)cc1)CC3` [Compound 2-33, 2-(4-(trifluoromethyl)benzyl)-N-(1-(4-(trifluoromethyl)phenylcarbamoyl)piperidin-4-yl)-2,3,4,5-tetrahydro-1H-pyrido[4,3-b]indole-8-carboxamide], the EC50 fell in the range of 1 to 5 µM.

As to `O=C(NC1CCN(S(=O)(=O)c2ccc(F)cc2)CC1)c1ccc2[nH]c3c(c2c1)CN(c1ccc(F)cc1)CC3` [Compound 2-35, 2-(4-fluorophenyl)-N-(1-(4-fluorophenylsulfonyl)piperidin-4-yl)-2,3,4,5-tetrahydro-1H-pyrido[4,3-b]indole-8-carboxamide], the EC50 was 10 to 50 µM.

Consider `O=C(NC1CCN(Cc2cccnc2)CC1)c1ccc2[nH]c3c(c2c1)CN(c1ccc(F)cc1)CC3` [Compound 2-36, 2-(4-fluorophenyl)-N-(1-(pyridin-3-ylmethyl)piperidin-4-yl)-2,3,4,5-tetrahydro-1H-pyrido[4,3-b]indole-8-carboxamide], for which the EC50 is > 100 µM.

On to `O=C(NC1CCN(Cc2ccc(C(F)(F)F)cc2)CC1)c1ccc2[nH]c3c(c2c1)CN(c1ccc(F)cc1)CC3` [Compound 2-37, 2-(4-fluorophenyl)-N-(1-(4-(trifluoromethyl)benzyl)piperidin-4-yl)-2,3,4,5-tetrahydro-1H-pyrido[4,3-b]indole-8-carboxamide], for which the EC50 was 5 to 10 µM.

In the case of `CC(C)(C)OC(=O)N1CCC(NC(=O)c2ccc3[nH]c4c(c3c2)CN(c2ccc(F)cc2)CC4)CC1` [Compound 2-38, tert-butyl 4-(2-(4-fluorophenyl)-2,3,4,5-tetrahydro-1H-pyrido[4,3-b]indole-8-carboxamido)piperidine-1-carboxylate], the EC50 lay within 10 to 50 µM.

Molecule `O=C(NC1CCN(C(=O)c2ccc(F)cc2)CC1)c1ccc2[nH]c3c(c2c1)CN(c1ccc(F)cc1)CC3` [Compound 2-39, N-(1-(4-fluorobenzoyl)piperidin-4-yl)-2-(4-fluorophenyl)-2,3,4,5-tetrahydro-1H-pyrido[4,3-b]indole-8-carboxamide] returned an EC50 of 10 to 50 µM.

`O=C(NC1CCN(C(=O)c2cccnc2)CC1)c1ccc2[nH]c3c(c2c1)CN(c1ccc(F)cc1)CC3` [Compound 2-40, 2-(4-fluorophenyl)-N-(1-nicotinoylpiperidin-4-yl)-2,3,4,5-tetrahydro-1H-pyrido[4,3-b]indole-8-carboxamide]: the EC50 is > 100 µM.

Regarding `O=C(NC1CCN(C(=O)c2ccc(C(F)(F)F)cc2)CC1)c1ccc2[nH]c3c(c2c1)CN(c1ccc(F)cc1)CC3` [Compound 2-41, 2-(4-fluorophenyl)-N-(1-(4-(trifluoromethyl)benzoyl)piperidin-4-yl)-2,3,4,5-tetrahydro-1H-pyrido[4,3-b]indole-8-carboxamide], the EC50 fell in the range of 10 to 50 µM.

For the molecule `CC(C)(C)OC(=O)N1CCC(NC(=O)c2ccc3[nH]c4c(c3c2)CN(Cc2ccc(C(N)=O)cc2)CC4)CC1` [Compound 2-43, tert-butyl 4-(2-(4-carbamoylbenzyl)-2,3,4,5-tetrahydro-1H-pyrido[4,3-b]indole-8-carboxamido)piperidine-1-carboxylate], the EC50 was > 100 µM.

`N#Cc1ccc(CN2CCC(NC(=O)c3ccc4[nH]c5c(c4c3)CN(Cc3ccc(C(N)=O)cc3)CC5)CC2)cc1` [Compound 2-44, 2-(4-carbamoylbenzyl)-N-(1-(4-cyanobenzyl)piperidin-4-yl)-2,3,4,5-tetrahydro-1H-pyrido[4,3-b]indole-8-carboxamide]: the EC50 is 10 to 50 µM.

On to `NC(=O)c1ccc(CN2CCc3[nH]c4ccc(C(=O)NC5CCN(Cc6ccncc6)CC5)cc4c3C2)cc1` [Compound 2-45, 2-(4-carbamoylbenzyl)-N-(1-(pyridin-4-ylmethyl)piperidin-4-yl)-2,3,4,5-tetrahydro-1H-pyrido[4,3-b]indole-8-carboxamide], for which the EC50 was > 100 µM.

For `NC(=O)c1ccc(CN2CCc3[nH]c4ccc(C(=O)NC5CCN(C(=O)c6ccncc6)CC5)cc4c3C2)cc1` [Compound 2-46, 2-(4-carbamoylbenzyl)-N-(1-isonicotinoylpiperidin-4-yl)-2,3,4,5-tetrahydro-1H-pyrido[4,3-b]indole-8-carboxamide], the EC50 was > 100 µM.

These data come from patent US9409884B2 (Rigel Pharmaceuticals, Inc., priority 2012, dated 2016).
